Source: ChEMBL document CHEMBL1139932, “Structure-based organic synthesis of unnatural aeruginosin hybrids as potent inhibitors of thrombin” (Bioorg Med Chem Lett, 2007)

Target: Prothrombin (Homo sapiens, UniProt P00734)
Assay: Inhibition of thrombin

Row | Structure (SMILES) | IC50 [nM]
1 | CC(C)C[C@@H](NC(=O)[C@H](O)Cc1ccccc1)C(=O)N1[C@H](C(=O)NCCC2=CCN(C(=N)N)C2)C[C@@H]2CCCC[C@@H]21 | 120
2 | CC(C)C[C@@H](NC(=O)[C@H](O)Cc1ccccc1)C(=O)N1[C@H](C(=O)NCCCCN=C(N)N)C[C@@H]2CC[C@@H](O)C[C@@H]21 | 5600
3 | CC(C)C[C@@H](NC(=O)[C@H](O)Cc1ccccc1)C(=O)N1[C@H](C(=O)NCCCCN=C(N)N)C[C@@H]2CCCC[C@@H]21 | 1500
4 | CC(C)C[C@@H](NC(=O)[C@H](O)Cc1ccccc1)C(=O)N1[C@H](C(=O)NCCC2=CCN(C(=N)N)C2)C[C@@H]2CC[C@@H](O)C[C@@H]21 | 220
5 | CC[C@@H](C)[C@@H](NC(=O)[C@H](O)Cc1ccccc1)C(=O)N1CCC[C@H]1C(=O)NCc1ccc(C(=N)N)cc1 | 7
6 | CC(C)[C@H](Cl)[C@@H](NC(=O)[C@H](O)Cc1ccccc1)C(=O)N1[C@H](C(=O)NCc2ccc(C(=N)N)cc2)C[C@@H]2CCCC[C@@H]21 | 1.6
7 | CC[C@H](C)[C@@H](N)C(=O)N1[C@H](C(=O)NCc2ccc(C(=N)N)cc2)C[C@@H]2CCCC[C@@H]21 | 101
8 | CC[C@H](C)[C@@H](NC(=O)[C@H](O)Cc1ccccc1)C(=O)N1[C@H](C(=O)NCc2ccc(C(=N)N)cc2)C[C@@H]2CCCC[C@@H]21 | 3.3
9 | N=C(N)c1ccc(CNC(=O)[C@@H]2C[C@@H]3CCCC[C@@H]3N2C(=O)C(NC(=O)[C@H](O)Cc2ccccc2)C2CCCCC2)cc1 (stereo partly specified) | 3.4
10 | CC(C)C[C@@H](NC(=O)[C@H](O)Cc1ccccc1)C(=O)N1[C@H](C(=O)NCc2ccc(C(=N)N)cc2)C[C@@H]2CCCC[C@@H]21 | 97
11 | CC(C)[C@H](Cl)[C@@H](NC(=O)[C@H](O)Cc1ccccc1)C(=O)N1[C@H](C(=O)NCCCCN=C(N)N)C[C@@H]2CC[C@@H](O)C[C@@H]21 | 310
12 | CC[C@H](C)[C@@H](NC(=O)CCc1ccccc1)C(=O)N1[C@H](C(=O)NCc2ccc(C(=N)N)cc2)C[C@@H]2CCCC[C@@H]21 | 334
13 | CO[C@H](CO)C(=O)N[C@@H](C(=O)N1[C@H](C(=O)NCCC2=CCN(C(=N)N)C2)C[C@@H]2C[C@H](O)[C@@H](O)C[C@@H]21)[C@@H](Cl)C(C)C | 11
14 | CC[C@H](C)[C@@H](NC(C)=O)C(=O)N1[C@H](C(=O)NCc2ccc(C(=N)N)cc2)C[C@@H]2CCCC[C@@H]21 | 786
15 | CC[C@H](C)C(NC(=O)OC(C)(C)C)C(=O)N1[C@H](C(=O)NCc2ccc(C(=N)N)cc2)C[C@@H]2CCCC[C@@H]21 (single isomer, unassigned) | 171
16 | CC[C@H](C)C(NC(=O)[C@@H](C)O)C(=O)N1[C@H](C(=O)NCc2ccc(C(=N)N)cc2)C[C@@H]2CCCC[C@@H]21 (single isomer, unassigned) | 53
